For this assay, the target named is IRE-1α (Homo sapiens (Human), UniProt O75460). As to the kind of experiment: Cellular EC50: endogenous XBP-1 splicing in myeloma cells (MM.1s, DTT stress, RT-PCR). The class given is cell-based. The following applies: average cellular EC50, XBP-1 splicing in myeloma cells. The procedure:
Human myeloma MM.1s cells are incubated with a compound for 1.25 hours before stressing the cells with 2 mM dithiothreitol (DTT). After an additional 45 minutes (2 hours total) with compound and DTT, the cells are harvested with TRIZOL® (a mono-phasic solution of phenol and guanidine isothiocyanate), and total RNA is prepared as directed by the manufacturer (Invitrogen). Human XBP-1 is amplified by RT-PCR with the following primers, which flank the 26 base unconventional intron excised by IRE-1α:
RT-PCR of unstressed (U) cells then generates the upper band. When cells are stressed (S) with the endoplasmic reticulum (ER) stressing agent DTT, IRE-1α is activated due to accumulating unfolded protein and the resulting RT-PCR product is 26 base pairs shorter.
Compounds which pass specificity assays are assayed for cellular EC50 using endogenous XBP-1 splicing in myeloma cells. XBP-1 is regulated through the excision of a 26 nucleotide intron from the XBP-1 mRNA by the highly specific endoribonuclease activity of IRE-1α. […] This splicing event is used to measure IRE-1α activity on XBP-1 mRNA in cells and tissues.
Briefly, compounds are incubated in the presence or absence of an ER stress agent (e.g., DTT), and the ratio of XBP-1u (unspliced) to XBP-1s (spliced) is quantified by RT-PCR. The ED50 is determined as the 50% XBP-1s to total XPB-1 levels.

pEC50: −log10 of the molar value. A value given as a limit tells only on which side of the number the result lay.

Chain of IRE-1α (O75460 19-977): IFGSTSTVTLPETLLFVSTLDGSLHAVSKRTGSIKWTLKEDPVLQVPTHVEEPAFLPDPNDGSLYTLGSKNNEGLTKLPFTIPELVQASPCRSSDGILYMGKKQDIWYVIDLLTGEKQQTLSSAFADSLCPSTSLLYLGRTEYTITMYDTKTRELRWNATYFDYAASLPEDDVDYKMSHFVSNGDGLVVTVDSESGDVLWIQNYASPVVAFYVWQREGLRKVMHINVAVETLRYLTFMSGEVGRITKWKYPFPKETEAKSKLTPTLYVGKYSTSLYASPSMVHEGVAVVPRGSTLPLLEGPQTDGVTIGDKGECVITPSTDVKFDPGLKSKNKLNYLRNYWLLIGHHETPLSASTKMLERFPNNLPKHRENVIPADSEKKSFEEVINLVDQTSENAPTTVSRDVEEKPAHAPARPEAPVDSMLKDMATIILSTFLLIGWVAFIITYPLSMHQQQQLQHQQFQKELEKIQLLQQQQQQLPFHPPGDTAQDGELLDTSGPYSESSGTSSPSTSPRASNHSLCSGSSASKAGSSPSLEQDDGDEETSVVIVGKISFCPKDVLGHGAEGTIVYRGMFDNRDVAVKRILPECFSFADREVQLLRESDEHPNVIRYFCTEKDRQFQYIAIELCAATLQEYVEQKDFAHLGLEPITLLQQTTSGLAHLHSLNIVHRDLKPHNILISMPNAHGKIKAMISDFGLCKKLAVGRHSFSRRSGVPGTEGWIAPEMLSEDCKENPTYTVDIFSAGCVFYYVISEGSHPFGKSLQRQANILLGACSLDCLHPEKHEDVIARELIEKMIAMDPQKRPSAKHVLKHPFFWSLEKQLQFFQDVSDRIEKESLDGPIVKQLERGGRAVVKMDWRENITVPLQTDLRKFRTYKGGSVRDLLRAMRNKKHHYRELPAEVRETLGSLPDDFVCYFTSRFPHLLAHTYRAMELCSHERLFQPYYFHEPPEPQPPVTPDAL

Turning to `COCCOc1cc(O)c(C=O)c2oc(=O)c(CCC(=O)N3CCOCC3)c(C)c12` [Example 153], the pEC50 – broadly, the EC50 on a negative log10 scale, so that one unit is a factor of ten – is above 5.00. In the case of `CN1CCN(C(=O)c2cnc(N3CCc4c(ccc(O)c4C=O)C3)s2)CC1` [Example 33], the negative logarithm of the EC50 (pEC50) was below 5.00.

On to `CCOC(=O)Cc1c(C)c2cc(OC)c(O)c(C=O)c2oc1=O` [Example 131], for which the pEC50 is above 5.00. The figure for `Cc1nc2ccc(O)c(C=O)c2o1` [Example 256] is below 5.00; for `COc1cc2c(C)c(-c3ccc(N4CCN(C)CC4)nc3)c(=O)oc2c(C=O)c1O` [Example 113] it is above 5.00.

Regarding `Cc1c(-c2ccc(C(=O)NCCN3CCOCC3)cc2)c(=O)oc2c(C=O)c(O)ccc12` [Example 3], the pEC50 is above 5.00. As for `COc1cc2c(C)c(-c3ccc(N(C)C)nc3)c(=O)oc2c(C=O)c1O` [Example 115], the figure is above 5.00; as for `CN1CCN(C(=O)c2cnc(-c3cc4ccc(O)c(C=O)c4oc3=O)s2)CC1` [Example 107], above 5.00; as for `Cc1c(CC(=O)O)c(=O)oc2c(C=O)c(O)ccc12` [Example 70], below 5.00. In the case of `COCCOc1cc(O)c(C=O)c2oc(=O)c(CCC(=O)NCCN3CCOCC3)c(C)c12` [Example 156], the pEC50 is below 5.00. `CCNC(=O)CCc1cc2c(C=O)c(O)ccc2s1` [Example 269]: the pEC50 is below 5.00.

For `O=Cc1c(O)ccc2oc(CCC(=O)NCCN3CCOCC3)nc12` [Example 253], the pEC50 was above 5.00.

For `O=Cc1c(O)ccc2oc(CCC(=O)N3CCOCC3)nc12` [Example 250], the pEC50 is below 5.00. On to `Cc1nc(N2CCc3c(ccc(O)c3C=O)C2)sc1C(=O)NCCN1CCOCC1` [Example 37], for which the pEC50 is below 5.00.

The compound `COCc1c(CCC(=O)NCCN2CCOCC2)c(=O)oc2c(C=O)c(O)c(OC)cc12` [Example 140] had a pEC50 below 5.00. As for `COCCOc1cc(O)c(C=O)c2oc(=O)c(CC(=O)NCCN3CCOCC3)c(C)c12` [Example 163], the figure is above 5.00. `O=Cc1c(O)ccc2oc(CCC(=O)O)nc12` [Example 248] gave a pEC50 below 5.00. Regarding `CCNC(=O)CCc1c(C)c2c(OCCOC)cc(O)c(C=O)c2oc1=O` [Example 155], the pEC50 is above 5.00. In turn, `O=Cc1c(O)ccc2nc(-c3ccc(C(=O)N4CCOCC4)cc3)ccc12` [Example 44] gave a pEC50 above 5.00. In the case of `COc1cc2c(C)c(CCC(=O)NCCO)c(=O)oc2c(C=O)c1O` [Example 147], the negative logarithm of the EC50 (pEC50) was below 5.00. As for `CCOC(=O)c1cc2c(C=O)c(O)ccc2o1` [Example 280], the figure is below 5.00; as for `CCOC(=O)CCc1nc2c(C=O)c(O)ccc2n1C` [Example 245], above 5.00; as for `COc1cc2c(=O)c(CC(=O)NCCN3CCOCC3)c(C)oc2c(C=O)c1O` [Example 210], below 5.00. As for `Cc1nc(N2CCc3c(ccc(O)c3C=O)C2)sc1C(=O)NC1CCNCC1` [Example 35], the figure is below 5.00; as for `CN1CCN(C(=O)c2cccc(-c3ccc4c(C=O)c(O)ccc4n3)c2)CC1` [Example 42], above 5.00.

`CCNC(=O)CCc1c(C)oc2c(C=O)c(O)c(OC)cc2c1=O` [Example 213] showed a pEC50 below 5.00.

For `CCNC(=O)CCc1c(C)c2cc(OC)c(O)c(C=O)c2oc1=O` [Example 174], the pEC50 is above 5.00. Regarding `CC(C)c1cc(=O)oc2c(C=O)c(O)ccc12` [Example 5], the pEC50 is above 5.00. As for `CN(C)CCNC(=O)CCc1nc2c(C=O)c(O)ccc2[nH]1` [Example 236], the figure is below 5.00; as for `COCCNC(=O)CCc1nc2c(C=O)c(O)ccc2n1C` [Example 241], below 5.00; as for `COCCOc1cc(O)c(C=O)c2oc(=O)c(CCC(=O)NCCN(C)C)c(C)c12` [Example 157], below 5.00. The figure for `CCNC(=O)Cc1c(C)oc2c(C=O)c(O)c(OC)cc2c1=O` [Example 209] is above 5.00; for `Cn1c(CCC(=O)O)nc2ccc(O)c(C=O)c21` [Example 240] it is below 5.00; for `COCCNC(=O)Cc1c(C)oc2c(C=O)c(O)ccc2c1=O` [Example 220] it is above 5.00. As for `Cc1nc(-c2cc3ccc(O)c(C=O)c3oc2=O)sc1C(=O)N1CCN(C)CC1` [Example 108], the figure is above 5.00. For `CN(C)CCNC(=O)c1cc2c(C=O)c(O)ccc2s1` [Example 263], the pEC50 was below 5.00. On to `CCNC(=O)CCc1nc2c(C=O)c(O)ccc2[nH]1` [Example 234], for which the pEC50 is below 5.00.

With `CCNC(=O)Cc1c(C)oc2c(C=O)c(O)cc(OC)c2c1=O` [Example 228], the pEC50 was above 5.00. In turn, `Cc1nc2c(C=O)c(O)ccc2o1` [Example 255] had a pEC50 above 5.00. `COCCc1c(C)c2cc(OC)c(O)c(C=O)c2oc1=O` [Example 125] gave a pEC50 above 5.00. The compound `COCCOCCc1c(C)c2c(OC)cc(O)c(C=O)c2oc1=O` [Example 145] gave a pEC50 above 5.00. `CC(C(=O)N1CCOCC1)c1nc2c(C=O)c(O)ccc2o1` (centres unmarked) [Example 254] gave a pEC50 below 5.00.

Regarding `COc1cc2c(=O)c(CCC(=O)NCCN3CCOCC3)c(C)oc2c(C=O)c1O` [Example 93], the negative logarithm of the EC50 (pEC50) was below 5.00. `Cc1oc2c(C=O)c(O)ccc2c(=O)c1CC(=O)N1CCOCC1` [Example 221] gave a pEC50 below 5.00.

`COc1cc(O)c(C=O)c2oc(=O)c(CC(=O)NCCN(C)C)c(C)c12` [Example 180] gave a pEC50 above 5.00. The compound `COCCOc1cc2c(C)c(CC(=O)N3CCOCC3)c(=O)oc2c(C=O)c1O` [Example 188] showed a pEC50 above 5.00. For `COCCNC(=O)Cc1c(C)c2cc(OC)c(O)c(C=O)c2oc1=O` [Example 166], the pEC50 is above 5.00.

Turning to `COc1cc2c(C)c(-c3ccc(C(=O)N4CCOCC4)s3)c(=O)oc2c(C=O)c1O` [Example 142], the pEC50 was above 5.00.

Take `Cc1oc2c(C=O)c(O)ccc2c(=O)c1CC(=O)N1CCN(C)CC1` [Example 222]: the negative logarithm of the EC50 (pEC50) is above 5.00. As for `COc1cc2c(C)c(C(C)C)c(=O)oc2c(C=O)c1O` [Example 200], the figure is below 5.00; as for `Cn1c(CCC(=O)N2CCOCC2)nc2c(C=O)c(O)ccc21` [Example 242], below 5.00; as for `CCOC(=O)c1cc2c(C=O)c(O)ccc2[nH]1` [Example 279], below 5.00. As for `O=Cc1c(O)ccc2nc(-c3cccc(C(=O)NCCN4CCOCC4)c3)ccc12` [Example 46], the figure is above 5.00.

Take `CN1CCN(C(=O)c2ccc(-c3ccc4c(C=O)c(O)ccc4n3)cc2)CC1` [Example 41]: the pEC50 is above 5.00. The compound `COc1cc(O)c(C=O)c2oc(=O)c(CCC(=O)NCCN(C)C)c(C)c12` [Example 195] gave a pEC50 above 5.00.

`COc1cc2c(C)c(-c3ccc(C(=O)N4CCN(C)CC4)cc3)c(=O)oc2c(C=O)c1O` [Example 111] gave a pEC50 above 5.00. As for `CCNC(=O)Cc1c(C)c2c(OCCOC)cc(O)c(C=O)c2oc1=O` [Example 162], the figure is above 5.00; as for `Cn1c(CCC(=O)O)nc2c(C=O)c(O)ccc21` [Example 246], below 5.00; as for `COCCNC(=O)CCc1nc2c(C=O)c(O)ccc2[nH]1` [Example 231], below 5.00. The figure for `COCCOc1cc2c(C)c(CCC(=O)N3CCN(C)CC3)c(=O)oc2c(C=O)c1O` [Example 182] is above 5.00; for `COC(=O)Cc1cc2c(C=O)c(O)ccc2s1` [Example 264] it is below 5.00. As for `CCNC(=O)Cc1c(C)c2cc(OCCOC)c(O)c(C=O)c2oc1=O` [Example 191], the figure is above 5.00. On to `CCOC(=O)Cc1c(C)c2c(OCCOC)cc(O)c(C=O)c2oc1=O` [Example 158], for which the pEC50 is above 5.00. Compound `CCOC(=O)CCc1cc2c(C=O)c(O)ccc2s1` [Example 267] gave a pEC50 below 5.00. The figure for `Cc1cc(=O)oc2c(C=O)c(O)c(Cl)cc12` [Example 22] is above 5.00; for `COCc1cc(=O)oc2c(C=O)c(O)c(OC)cc12` [Example 136] it is above 5.00; for `COCCOc1cc2c(C)c(CCC(=O)NCCN3CCOCC3)c(=O)oc2c(C=O)c1O` [Example 186] it is below 5.00. As for `COCc1cc(=O)oc2c(C=O)c(O)cc(OC)c12` [Example 122], the figure is above 5.00; as for `Cn1c(CCC(=O)N2CCOCC2)nc2ccc(O)c(C=O)c21` [Example 229], below 5.00; as for `O=Cc1c(O)ccc2oc(C(=O)N3CCOCC3)cc12` [Example 283], below 5.00.

For `COCCNC(=O)Cc1c(C)oc2c(C=O)c(O)cc(OC)c2c1=O` [Example 226], the negative-log EC50 (pEC50) was above 5.00. Compound `COCCNC(=O)CCc1c(C)oc2c(C=O)c(O)c(OC)cc2c1=O` [Example 212] gave a pEC50 below 5.00. `COc1cc2c(=O)c(CC(=O)N3CCN(C)CC3)c(C)oc2c(C=O)c1O` [Example 208] showed a negative-log EC50 (pEC50) below 5.00. As for `CN(C)CCNC(=O)CCc1cc2c(C=O)c(O)ccc2s1` [Example 271], the figure is above 5.00. The figure for `CCNC(=O)c1cc2c(C=O)c(O)ccc2[nH]1` [Example 276] is below 5.00; for `O=Cc1c(O)ccc2nc(CCC(=O)NCCN3CCOCC3)[nH]c12` [Example 235] it is below 5.00.

Take `COc1cc(O)c(C=O)c2oc(=O)cc(C)c12` [Example 120]: the pEC50 is above 5.00.

Values taken from US9693992B2 (MannKind Corporation, priority 2010, dated 2017).
